Experimental data published in patent US4564612A, “Condensed, seven-membered ring compounds and their use” (Takeda Chemical Industries, Ltd., priority 1983, dated 1986).
Counter-ions that a name gives are not always drawn. Like-named read-outs stand apart in the source and are kept apart here. Values belong to the compound of their own block, whether it stands above or below them.

How the values were obtained:
[1] = tested on: hypertensive reaction by angiotensin I; assay: Effect against hypertensive activity of angiotensin I in rats, intravenous administration; format: in vivo, rats (Sprague-Dawley); details: 300 μg/kg i.v., male rats
Procedure: (§1) Effect of the Compounds of the Present Invention against Hypertensive Activity of Angiotensin I.
(§2) Male rats (Sprague-Dawley) weighing 300 to 400 g which were fed under free access to drinking water and feed were used as experimental animals. The rats were anesthetized with intraperitoneal administration of pentobarbital sodium (50 mg/kg) on the day before the test day and a polyethylene tube was inserted into each of the femoral artery for measurement of blood pressure and the femoral vein for injection of angiotensin I and II. And the tubes were fixed.
On the test day, an average blood pressure in the control phase was measured by an electric hemodynamometer (MPU-0.5-290-0-III model manufactured by NEC-Sanei, Japan) and recorded by a polygraph (NEC-Sanei, Type 365 or Nippon Kohden Type RM-45, and thereafter angiotensin I and then angiotensin II were injected through the femoral vein at a dose of 300 ng/kg and 100 ng/kg, respectively, to measure the hypertensive activity. […] In calculating the percent inhibition to the hypertensive activity of angiotensin I, the percent inhibitory value was corrected based on the variation with time in the hypertensive reaction by antiotensin II.

[2] = target: T1, Angiotensin I Converting Enzyme (ACE) (Oryctolagus cuniculus, UniProt P12822); assay: Inhibition of Angiotensin I Converting Enzyme (ACE), HHL substrate, modified Cushman method; format: biochemical; details: read-out: ACE inhibitory activity (%); for inhibition at 1 µM: concentration 1 μM
T1 sequence (P12822 34-1310): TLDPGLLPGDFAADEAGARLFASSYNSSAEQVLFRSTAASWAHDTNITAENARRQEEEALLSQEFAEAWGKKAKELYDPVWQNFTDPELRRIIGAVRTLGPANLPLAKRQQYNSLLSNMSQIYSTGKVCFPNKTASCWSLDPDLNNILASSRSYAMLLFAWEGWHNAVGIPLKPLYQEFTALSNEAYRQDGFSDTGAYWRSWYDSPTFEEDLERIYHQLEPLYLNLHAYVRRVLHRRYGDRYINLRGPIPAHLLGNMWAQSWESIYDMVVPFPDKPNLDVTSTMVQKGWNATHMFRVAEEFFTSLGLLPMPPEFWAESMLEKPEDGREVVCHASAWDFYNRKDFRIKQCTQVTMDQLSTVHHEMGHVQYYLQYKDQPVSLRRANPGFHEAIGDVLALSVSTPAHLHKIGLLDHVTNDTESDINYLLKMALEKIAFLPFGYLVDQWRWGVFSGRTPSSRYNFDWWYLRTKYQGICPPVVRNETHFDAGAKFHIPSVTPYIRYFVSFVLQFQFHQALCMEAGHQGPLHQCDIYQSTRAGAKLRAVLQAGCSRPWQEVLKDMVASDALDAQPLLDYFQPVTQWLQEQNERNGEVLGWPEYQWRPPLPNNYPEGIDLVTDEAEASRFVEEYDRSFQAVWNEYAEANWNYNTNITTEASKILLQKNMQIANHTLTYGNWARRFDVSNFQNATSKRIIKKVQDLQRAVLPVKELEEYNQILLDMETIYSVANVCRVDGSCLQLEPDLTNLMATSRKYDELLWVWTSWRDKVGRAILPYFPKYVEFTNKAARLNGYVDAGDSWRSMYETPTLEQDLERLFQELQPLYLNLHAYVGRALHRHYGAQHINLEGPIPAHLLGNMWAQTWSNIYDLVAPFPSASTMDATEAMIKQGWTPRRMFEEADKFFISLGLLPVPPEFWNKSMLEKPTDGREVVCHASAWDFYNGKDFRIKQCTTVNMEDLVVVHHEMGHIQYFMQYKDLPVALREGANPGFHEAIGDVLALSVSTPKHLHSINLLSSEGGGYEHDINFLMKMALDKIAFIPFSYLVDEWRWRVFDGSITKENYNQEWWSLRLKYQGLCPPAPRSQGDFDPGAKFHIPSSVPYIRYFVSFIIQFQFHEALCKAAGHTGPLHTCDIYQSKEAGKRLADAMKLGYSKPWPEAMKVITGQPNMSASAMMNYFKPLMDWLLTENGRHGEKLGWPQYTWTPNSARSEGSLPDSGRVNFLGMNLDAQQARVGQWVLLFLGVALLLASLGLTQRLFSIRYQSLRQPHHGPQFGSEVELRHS
Procedure: Experiment on Inhibition of Angiotensin I Converting Enzyme (ACE) by the Compounds of this Invention. […] That is, using hippuryl-L-histidyl-L-leucine (HHL) as the substrate, the ACE inhibitory activity was determined in terms of percent inhibition on the amount of hippuric acid produced by ACE when the compound of the present invention was added. […] In this experiment, a borate-HCl buffer solution containing dimethylsulfoxide at a concentration equal to that of the test solution was used as a control. After warming the solution at 37° C. for 1 hour, 150 μl of 1N hydrochloric acid was added to the solution to terminate the reaction. After 0.8 ml of ethyl acetate was added the solution was centrifuged at 11500 rpm for 2 minutes. A 0.5 ml aliquot was separated from the ethyl acetate layer and dried at a temperature below 40° C. under nitrogen gas streams. The residue was mixed thoroughly with 4.5 ml of distilled water, and the mixture was subjected to colorimetry at a wavelength of 228 nm.

[3] = tested on: hypertensive reaction by angiotensin I; assay: Effect against hypertensive activity of angiotensin I in rats, oral administration; format: in vivo, rats (Sprague-Dawley); details: male rats
Procedure: as §1
as §2, with “250” for “300”, “350” for “400”
On the test day, an average blood pressure in the control phase was measured by an electric hemodynamometer (MPU-0.5-290-0-III model manufactured by NEC-Sanei, Japan) and recorded by a polygraph (NEC-Sanei, Type 365 or Nippon Kohden Type RM-45), and thereafter angiotensin I and then angiotensin II were injected through the femoral vein at a dose of 300 ng/kg and 100 ng/kg, respectively, to measure the hypertensive activity. Then, 3 and 10 mg/kg of the compound of the present invention were administered orally as an aqueous solution or an aqueous gum arabic suspension, and 20, 60 and 120 minutes after the administration, angiotensin I and II were injected repeatedly to trace hypertensive reactions. In calculating the percent inhibition to the hypertensive activity of angiotensin I, the percent inhibitory value was corrected based on the variation with time in the hypertensive reaction by angiotensin II.

[4] = 10 mg/kg orally, after 120 min.

inhibition at 0.1 µM ([2]; concentration 0.1 μM): 83%
inhibition at 1 µM [2]: 95%
Structure (SMILES): CCOC(=O)[C@H](CCC1CCCCC1)N[C@H]1CSc2ccccc2N(CC(=O)O)C1=O.Cl [Example 9, 3(R)-[1(S)-ethoxycarbonyl-3-cyclohexylpropyl]amino-4-oxo-2,3,4,5-tetrahydro-1,5-benzothiazepine-5-acetic acid hydrochloride]
Inhibition against hypertensive reaction by angiotensin I (%) ([3]; 3 mg/kg orally, after 20 min.): 66%
Inhibition against hypertensive reaction by angiotensin I (%) ([3]; 3 mg/kg orally, after 60 min.): 36%
Inhibition against hypertensive reaction by angiotensin I (%) ([3]; 3 mg/kg orally, after 120 min.): 12%
Inhibition against hypertensive reaction by angiotensin I (%) ([3]; 10 mg/kg orally, after 20 min.): 92%
Inhibition against hypertensive reaction by angiotensin I (%) ([3]; 10 mg/kg orally, after 60 min.): 72%
Inhibition against hypertensive reaction by angiotensin I (%) [3, 4]: 68%

inhibition at 1 µM [2]: 50%
inhibition at 10 µM ([2]; concentration 10 μM): 86%
Structure (SMILES): O=C(O)CN1C(=O)[C@@H](N[C@H](CCc2ccccc2)C(=O)O)CSc2ccccc21 [Example 12, 3(R)-[1(R)-carboxy-3-phenylpropyl]amino-4-2,3,4,5-tetrahydro-1,5-benzothiazepine-5-acetic acid disodium salt]

inhibition at 0.01 µM ([2]; concentration 0.01 μM): 77%
inhibition at 0.1 µM ([2]; concentration 0.1 μM): 96%
Structure (SMILES): O=C(O)CN1C(=O)[C@@H](N[C@@H](CCC2CCCCC2)C(=O)O)CSc2ccccc21 [Example 50, 3(R)-[1(S)-carboxy-3-cyclohexylpropyl]amino-4-oxo-2,3,4,5-tetrahydro-1,5-benzothiazepine-5-acetic acid]

inhibition at 0.1 µM ([2]; concentration 0.1 μM): 82%
inhibition at 1 µM [2]: 98%
Structure (SMILES): NCCCC[C@H](N[C@H]1CSc2ccccc2N(CC(=O)O)C1=O)C(=O)O [Example 60, 3(R)-[5-amino-1(S)-carboxypentyl]amino-4-oxo-2,3,4,5-tetrahydro-1,5-benzothiazepine-5-acetic acid]

inhibition at 0.1 µM ([2]; concentration 0.1 μM): 93%
inhibition at 1 µM [2]: 100%
Structure (SMILES): O=C(O)CN1C(=O)[C@@H](N[C@@H](CCCCNC2CCCCC2)C(=O)O)CSc2ccccc21 [Example 69, 3(R)-[1(S)-carboxy-5-cyclohexylaminopentyl]amino-4-oxo-2,3,4,5-tetrahydro-1,5-benzothiazepine-5-acetic acid]

inhibition at 0.1 µM ([2]; concentration 0.1 μM): 96%
inhibition at 1 µM [2]: 100%
Structure (SMILES): NCCCCCC[C@H](N[C@H]1CSc2ccccc2N(CC(=O)O)C1=O)C(=O)O [Example 73, 3(R)-[7-amino-1(S)-carboxyheptyl]amino-4-oxo-2,3,4,5-tetrahydro-1,5-benzothiazepine-5-acetic acid]

The next lines start with the compound.

Structure (SMILES): CCOC(=O)[C@H](CCCCCCN)N[C@H]1CSc2ccccc2N(CC(=O)O)C1=O [C2 H5]
Inhibition against hypertensive reaction by angiotensin I (%) ([1]; after 5 min): 97%
Inhibition against hypertensive reaction by angiotensin I (%) ([1]; after 10 min): 97%
Inhibition against hypertensive reaction by angiotensin I (%) ([1]; after 30 min): 100%
Inhibition against hypertensive reaction by angiotensin I (%) ([1]; after 60 min): 96%
Inhibition against hypertensive reaction by angiotensin I (%) ([1]; after 90 min): 87%
Inhibition against hypertensive reaction by angiotensin I (%) ([1]; after 120 min): 73%

Structure (SMILES): CCOC(=O)[C@@H](CCc1ccccc1)N[C@H]1CSc2ccccc2N(CC(=O)O)C1=O [Example 5, 3(R)-[1(R)-ethoxycarbonyl-3-phenylpropyl]amino-4-oxo-2,3,4,5-tetrahydro-1,5-benzothiazepine-5-acetic acid hydrochloride]
inhibition at 0.1 µM ([2]; concentration 0.1 μM): 40%
inhibition at 1 µM [2]: 84%

Structure (SMILES): CCOC(=O)C(CCc1ccccc1)N[C@H]1CSc2ccccc2N(CC(=O)O)C1=O (some centres unmarked) [Example 6]
inhibition at 0.1 µM ([2]; concentration 0.1 μM): 48%
inhibition at 1 µM [2]: 85%

Structure (SMILES): CCOC(=O)[C@H](CCc1ccccc1)N[C@H]1CSc2ccccc2N(CC(=O)O)C1=O.Cl [Example 7, 3(R)-[1(S)-ethoxycarbonyl-3-phenylpropyl]amino-4-oxo-2,3,4,5-tetrahydro-1,5-benzothiazepine-5-acetic acid hydrochloride]
Inhibition against hypertensive reaction by angiotensin I (%) ([3]; 3 mg/kg orally, after 20 min.): 85%
Inhibition against hypertensive reaction by angiotensin I (%) ([3]; 3 mg/kg orally, after 60 min.): 51%
Inhibition against hypertensive reaction by angiotensin I (%) ([3]; 3 mg/kg orally, after 120 min.): 27%
Inhibition against hypertensive reaction by angiotensin I (%) ([3]; 10 mg/kg orally, after 20 min.): 85%
Inhibition against hypertensive reaction by angiotensin I (%) ([3]; 10 mg/kg orally, after 60 min.): 68%
Inhibition against hypertensive reaction by angiotensin I (%) [3, 4]: 51%
inhibition at 0.1 µM ([2]; concentration 0.1 μM): 53%
inhibition at 1 µM [2]: 86%

Structure (SMILES): O=C(O)CN1C(=O)[C@@H](N[C@@H](CCc2ccccc2)C(=O)O)CSc2ccccc21 [Example 13, 3(R)-[1(S)-carboxy-3-phenylpropyl]amino-4-oxo-2,3,4,5-tetrahydro-1,5-benzothiazepine-5-acetic acid monosodium salt]
inhibition at 0.01 µM [2]: 46%
inhibition at 0.1 µM [2]: 91%

Structure (SMILES): NCCCCCC[C@H](N[C@H]1CSc2ccccc2N(CC(=O)O)C1=O)C(=O)O [H]
Inhibition against hypertensive reaction by angiotensin I (%) ([1]; after 5 min): 100%
Inhibition against hypertensive reaction by angiotensin I (%) ([1]; after 10 min): 97%
Inhibition against hypertensive reaction by angiotensin I (%) ([1]; after 30 min): 97%
Inhibition against hypertensive reaction by angiotensin I (%) ([1]; after 60 min): 91%
Inhibition against hypertensive reaction by angiotensin I (%) ([1]; after 90 min): 78%
Inhibition against hypertensive reaction by angiotensin I (%) ([1]; after 120 min): 48%
